# Results reported in US20220023250A1, “ISOPROPYLCARBONATE BENZOYL PEROXIDE COMPOSITIONS AND METHODS OF USE” (Galderma Holding SA, priority 2019, published 2022).
# Tests used:
# [1] = Maximum solubility in non-volatile part of vehicle gel and in reconstituted sebum; type: physicochemical; conditions: for maximum solubility, TA reconstituted liquid sebum (22 H) / maximum solubility, TA reconstituted liquid sebum (extemporaneous): liquid fraction of the reconstituted sebum; for maximum solubility, TA reconstituted liquid sebum (22 H) / maximum solubility, TA non-volatile (22 H) / maximum solubility, Liquid sebum reconstituted at 32° C. (22 H): 22 H agitation; for maximum solubility, TA non-volatile (22 H): non-volatile part of the Composition A vehicle gel
# Description: In the case of active principles in dispersed form, these can dissolve after application, either in the sebum or in the non-volatile part of the formulation. […] (22 H agitation)
# [2] = Maximum solubility of Isopropylcarbonate Benzoyl Peroxide in oils; type: physicochemical
# Experimental: First, the maximum solubilities of Isopropylcarbonate Benzoyl Peroxide in various oils was assessed in the following table.
# [3] = Compatibility of additives (keratolytic agents, opacifying agents) with 1% CD08467 gel based composition 0347.1000; type: physicochemical; conditions: for Notes (reason of incompatibility): Table 6, keratolytic additive in gel 0347.1000; for compatibility of keratolytic agents: summary of Table 6
# Experimental: For this study, the following gel based composition was tested:
# The following keratolytic agents were tested with the gel based composition indicated above:
# The goal of using an opacifier is to mainly “mask” the evolution of the orange-brown color that appears over time either or the orange color present from T0. […] The chemical and physical stabilities were evaluated over 3 months at RT and 40° C.
# The following opacifying agents were tested with the gel based composition indicated above: […]
# [4] = Compatibility with oils: chemical and physical stability of 2.5% formulations, 3 months RT and 40° C.; type: physicochemical
# Experimental: To assess the possibility of a cream formulation that restores the cutaneous barrier, the compatibility of Isopropylcarbonate Benzoyl Peroxide with oils was assessed.
# Further the chemical and physical stabilities of the formulations containing 2.5% Isopropylcarbonate Benzoyl Peroxide with various oils were assessed after storage at 3 months RT and 40° C. The value of 2.5% was chosen in order to allow for comparisons to an equivalent formulation containing 2.5% benzoyl peroxide instead of 2.5% Isopropylcarbonate Benzoyl Peroxide.
# [5] = series with and without TiO2
# [6] = in COS SILKFLO ® 366 (POLYDECENE, Non-polar)
# [7] = in ISOSTEARYL ISOSTEARATE (Average polarity)
# [8] = in PARLEAM ® (HYDROGENATED POLYISOBUTENE, Non-polar)
# [9] = in PRIMOL ™ 352 (MINERAL OIL, Non-polar)
# [10] = in SILICON FLUID 20CST (POLYDIMETHYLSILOXANE, Average polarity)
# [11] = in ST-CYCLOMETHICONE 5 NF (Average polarity)
structure (smiles),measurement,setting,value
"O=C(OOC(=O)c1ccccc1)c1ccccc1 [BPO, benzoyl peroxide]","maximum solubility, TA reconstituted liquid sebum (22 H)",[1],1.4%
same,"maximum solubility, TA reconstituted liquid sebum (extemporaneous)",[1],1.1%
same,"maximum solubility, TA non-volatile (22 H)",[1],0.35%
same,"maximum solubility, Liquid sebum reconstituted at 32° C. (22 H)",[1],1.8%
CC(C)OC(=O)Oc1ccccc1C(=O)OOC(=O)c1ccccc1 [CD08467],"maximum solubility, TA reconstituted liquid sebum (22 H)",[1],1.6%
same,"maximum solubility, TA reconstituted liquid sebum (extemporaneous)",[1],0.25%
same,"maximum solubility, TA non-volatile (22 H)",[1],0.25%
same,"maximum solubility, Liquid sebum reconstituted at 32° C. (22 H)",[1],1.6%
same,% Max. Solution,[2]; [6],0.1498%
same,% max sol. visual,[2]; [6],0.18%
same,% Max. Solution,[2]; [7],0.8679%
same,% max sol. visual,[2]; [7],1.39%
same,% Max. Solution,[2]; [8],0.1862%
same,% max sol. visual,[2]; [8],0.50%
same,% Max. Solution,[2]; [9],0.1867%
same,% max sol. visual,[2]; [9],0.41%
same,% Max. Solution,[2]; [10],0.0735%
same,% max sol. visual,[2]; [10],0.18%
same,% Max. Solution,[2]; in SQUALANE PE (Non-polar),0.1781%
same,% max sol. visual,[2]; in SQUALANE PE (Non-polar),0.18%
same,% Max. Solution,[2]; [11],0.1253%
same,% max sol. visual,[2]; [11],0.33%
same,% Max. Solution,[2]; in WATER (Polar),Not measurable
same,% Max. Solution,[2]; meadowfoam seed oil,1.2925%
same,% max sol. visual,[2]; meadowfoam seed oil,1.96%
O=C(O)CO [GLYCOLIC ACID],Notes (reason of incompatibility),[3],Fall in value 1 m
same,compatibility of keratolytic agents,[3],compatible
NCCCC[C@H](N)C(=O)O [L-LYSINE],Notes (reason of incompatibility),[3],Strong coloration
CC(O)C(=O)O (centres unmarked) [LACTIC ACID],compatibility of keratolytic agents,[3],compatible
O=C(O)CC(O)C(=O)O (centres unmarked) [MALIC ACID],compatibility of keratolytic agents,[3],compatible
O=P(O)(O)O[C@H]1[C@H](OP(=O)(O)O)[C@@H](OP(=O)(O)O)[C@H](OP(=O)(O)O)[C@@H](OP(=O)(O)O)[C@H]1OP(=O)(O)O [PHYTIC ACID],compatibility of keratolytic agents,[3],compatible
O=C(O)c1ccccc1O [SALICYLIC ACID],Notes (reason of incompatibility),[3],Fall in value 1 m
CC(C)CCCC(C)CCCC(C)CCCCC(C)CCCC(C)CCCC(C)C (centres unmarked) [SQUALANE PE],compatibility of Isopropylcarbonate Benzoyl Peroxide with oils,[4]; Table 8,compatible
"C[Si]1(C)O[Si](C)(C)O[Si](C)(C)O[Si](C)(C)O[Si](C)(C)O1 [ST-CYCLOMETHICONE 5 NF, CYCLOMETHICONE 5]",Notes,"[4]; Table 8, comparison with equivalent 2.5% benzoyl peroxide formulation",Intense orange coloration
"O=C([O-])CN(CCN(CC(=O)[O-])CC(=O)O)CC(=O)O.[Na+].[Na+] [disodium EDTA, disodium ethylenediaminetetraacetic acid (EDTA)]",effect of component on stability of the formulation,[5],counter the chemically instability
